Experiments:
SRPK1 = SRPK1 (Homo sapiens, UniProt Q96SB4); test: In vitro SRPK1 assay (Kinase-Glo); format: biochemical
CYP1A2 = target: T1, CYP1A2 (Homo sapiens, UniProt P05177); test: CYP inhibition assay, human liver microsomes, substrate tacrine; format: in vitro ADME; conditions: human liver microsomes, 10 min incubation, LC-MS/MS; read-out: CYP Inhibition Activity (IC50/nM) CYP1A2
T1 construct: from tissue; host or cells: human liver microsomes
T1 sequence (P05177 1-516): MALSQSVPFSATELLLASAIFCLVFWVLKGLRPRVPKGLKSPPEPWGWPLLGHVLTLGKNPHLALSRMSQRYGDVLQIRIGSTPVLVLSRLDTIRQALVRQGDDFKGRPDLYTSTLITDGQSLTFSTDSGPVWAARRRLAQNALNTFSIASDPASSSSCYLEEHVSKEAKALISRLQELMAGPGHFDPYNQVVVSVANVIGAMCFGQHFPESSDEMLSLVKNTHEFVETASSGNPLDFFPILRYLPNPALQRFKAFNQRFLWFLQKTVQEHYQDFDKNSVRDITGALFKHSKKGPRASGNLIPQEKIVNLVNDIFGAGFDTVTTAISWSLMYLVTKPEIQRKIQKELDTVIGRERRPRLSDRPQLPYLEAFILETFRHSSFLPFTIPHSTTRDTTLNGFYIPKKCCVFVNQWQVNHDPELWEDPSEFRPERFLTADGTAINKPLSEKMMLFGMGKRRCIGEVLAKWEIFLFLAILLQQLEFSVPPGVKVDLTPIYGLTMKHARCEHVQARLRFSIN
Description: (§1) 2 μL of test compound/Positive Inhibitor working solutions is then added to the reaction plate (2 μL/well). For control, 2 μL of Acetonitrile (ACN) containing DMSO (without inhibitor) is added to the reaction plate. 20 μL of substrate pool is added to all the wells of the reaction plate. The samples are mixed in a vortexer and pre-incubated at 37° C. for 20 min. The NADPH solution is pre-warmed at 37° C. for 5 min. 20 μL of pre-warmed NADPH solution is added to the reaction plate and then incubated at 37° C. for 10 min. The reaction is terminated by adding cold ACN (200 μL/well) to the reaction mixture and centrifuging at 4,000 rpm for 20 minutes. After centrifugation, supernatant is separated and analyzed by LC-MS/MS.
(§2) % inhibition and IC50 are calculated using Graphpad Prism software.

CYP2C9 = target: T2, CYP2C9 (Homo sapiens, UniProt P11712); test: CYP inhibition assay, human liver microsomes, substrate diclofenac; format: in vitro ADME; conditions: human liver microsomes, 10 min incubation, LC-MS/MS; read-out: CYP Inhibition Activity (IC50/nM) CYP2C9
T2 construct: from tissue; host or cells: human liver microsomes
Description: as §1, §2

CYP2C19 = target: T3, CYP2C19 (Homo sapiens, UniProt P33261); test: CYP inhibition assay, human liver microsomes, substrate S-mephenytoin; format: in vitro ADME; conditions: human liver microsomes, 10 min incubation, LC-MS/MS; read-out: CYP Inhibition Activity (IC50/nM) CYP2C19
T3 construct: from tissue; host or cells: human liver microsomes
Description: as §1, §2

CYP2D6 = target: T4, CYP2D6 (Homo sapiens, UniProt P10635); test: biochemical; format: in vitro ADME
T4 construct: from tissue; host or cells: human liver microsomes
Description: 158 μL of Human Liver Microsomes working stock solution is added to a reaction plate (0.253 mg/mL, 158 μL/well). 2 μL of test compound/Positive Inhibitor working solutions is then added to the reaction plate (2 μL/well). For control, 2 μL of Acetonitrile (ACN) containing DMSO (without inhibitor) is added to the reaction plate. 20 μL of substrate pool is added to all the wells of the reaction plate. The samples are mixed in a vortexer and pre-incubated at 37° C. for 20 min. The NADPH solution is pre-warmed at 37° C. for 5 min. 20 μL of pre-warmed NADPH solution is added to the reaction plate and then incubated at 37° C. for 10 min. The reaction is terminated by adding cold ACN (200 μL/well) to the reaction mixture and centrifuging at 4,000 rpm for 20 minutes. After centrifugation, supernatant is separated and analyzed by LC-MS/MS.
as §2

CYP3A4 = target: T5, CYP3A4 (Homo sapiens, UniProt P08684); test: CYP inhibition assay, human liver microsomes, substrate midazolam; format: in vitro ADME; conditions: human liver microsomes, 10 min incubation, LC-MS/MS; read-out: CYP Inhibition Activity (IC50/nM) CYP3A4
T5 construct: from tissue; host or cells: human liver microsomes
Description: as §1, §2

T4 sequence (P10635 whole entry): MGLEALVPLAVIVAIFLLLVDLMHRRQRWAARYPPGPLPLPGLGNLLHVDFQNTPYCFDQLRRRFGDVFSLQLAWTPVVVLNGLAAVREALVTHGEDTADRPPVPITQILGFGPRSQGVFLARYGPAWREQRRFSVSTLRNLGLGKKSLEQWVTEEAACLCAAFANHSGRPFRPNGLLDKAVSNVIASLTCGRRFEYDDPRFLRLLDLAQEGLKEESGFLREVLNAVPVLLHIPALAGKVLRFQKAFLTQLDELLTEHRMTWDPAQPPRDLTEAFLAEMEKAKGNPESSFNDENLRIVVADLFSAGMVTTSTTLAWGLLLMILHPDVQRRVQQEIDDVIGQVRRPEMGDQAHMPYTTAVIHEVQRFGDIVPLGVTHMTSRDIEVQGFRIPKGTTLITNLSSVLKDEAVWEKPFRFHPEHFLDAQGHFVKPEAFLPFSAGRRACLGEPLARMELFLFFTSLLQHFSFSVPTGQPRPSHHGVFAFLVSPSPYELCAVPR
SRPK1, sequence (Q96SB4 whole entry, species assumed): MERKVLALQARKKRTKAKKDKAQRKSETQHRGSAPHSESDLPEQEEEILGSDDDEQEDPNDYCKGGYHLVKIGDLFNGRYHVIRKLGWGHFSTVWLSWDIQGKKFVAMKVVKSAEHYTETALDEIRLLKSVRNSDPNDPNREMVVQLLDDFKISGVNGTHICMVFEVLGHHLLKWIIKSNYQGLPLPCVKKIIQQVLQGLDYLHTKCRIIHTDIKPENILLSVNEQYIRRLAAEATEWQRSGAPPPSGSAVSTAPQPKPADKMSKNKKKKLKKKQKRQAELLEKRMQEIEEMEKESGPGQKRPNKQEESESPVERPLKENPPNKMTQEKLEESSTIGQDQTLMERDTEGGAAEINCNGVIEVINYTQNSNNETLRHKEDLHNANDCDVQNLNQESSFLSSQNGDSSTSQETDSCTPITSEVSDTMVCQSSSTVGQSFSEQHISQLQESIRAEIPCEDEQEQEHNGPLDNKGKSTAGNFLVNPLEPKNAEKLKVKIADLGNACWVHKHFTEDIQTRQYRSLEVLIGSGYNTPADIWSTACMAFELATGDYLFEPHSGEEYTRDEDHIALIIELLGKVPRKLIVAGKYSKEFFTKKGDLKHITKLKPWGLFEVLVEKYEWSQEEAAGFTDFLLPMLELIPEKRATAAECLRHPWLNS
T3 sequence (P33261 whole entry): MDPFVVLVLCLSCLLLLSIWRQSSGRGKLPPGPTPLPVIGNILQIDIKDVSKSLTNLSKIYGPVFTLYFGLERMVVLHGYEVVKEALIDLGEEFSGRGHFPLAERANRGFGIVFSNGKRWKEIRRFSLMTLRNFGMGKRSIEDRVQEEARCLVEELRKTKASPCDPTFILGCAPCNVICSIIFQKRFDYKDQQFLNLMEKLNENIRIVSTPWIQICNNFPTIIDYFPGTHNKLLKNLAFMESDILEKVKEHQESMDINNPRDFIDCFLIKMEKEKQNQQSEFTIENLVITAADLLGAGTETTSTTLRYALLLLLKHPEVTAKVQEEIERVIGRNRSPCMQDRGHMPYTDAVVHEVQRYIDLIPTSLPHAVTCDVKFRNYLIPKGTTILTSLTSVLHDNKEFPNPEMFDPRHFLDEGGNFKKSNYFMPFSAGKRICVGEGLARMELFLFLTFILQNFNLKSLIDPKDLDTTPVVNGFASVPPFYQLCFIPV
T2 sequence (P11712 whole entry): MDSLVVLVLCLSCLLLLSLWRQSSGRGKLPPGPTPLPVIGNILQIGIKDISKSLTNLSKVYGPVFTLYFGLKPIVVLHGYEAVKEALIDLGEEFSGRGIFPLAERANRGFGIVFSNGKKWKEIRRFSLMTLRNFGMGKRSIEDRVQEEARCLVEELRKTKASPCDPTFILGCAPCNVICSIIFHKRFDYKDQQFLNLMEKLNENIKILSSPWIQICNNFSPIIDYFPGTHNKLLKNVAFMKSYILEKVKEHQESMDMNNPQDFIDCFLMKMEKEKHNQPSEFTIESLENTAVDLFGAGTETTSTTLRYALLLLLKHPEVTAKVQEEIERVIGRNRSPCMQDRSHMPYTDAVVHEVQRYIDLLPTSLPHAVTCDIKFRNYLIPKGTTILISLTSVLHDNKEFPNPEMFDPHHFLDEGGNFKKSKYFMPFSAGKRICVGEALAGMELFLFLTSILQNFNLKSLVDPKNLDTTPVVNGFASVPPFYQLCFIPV
T5 sequence (P08684 whole entry): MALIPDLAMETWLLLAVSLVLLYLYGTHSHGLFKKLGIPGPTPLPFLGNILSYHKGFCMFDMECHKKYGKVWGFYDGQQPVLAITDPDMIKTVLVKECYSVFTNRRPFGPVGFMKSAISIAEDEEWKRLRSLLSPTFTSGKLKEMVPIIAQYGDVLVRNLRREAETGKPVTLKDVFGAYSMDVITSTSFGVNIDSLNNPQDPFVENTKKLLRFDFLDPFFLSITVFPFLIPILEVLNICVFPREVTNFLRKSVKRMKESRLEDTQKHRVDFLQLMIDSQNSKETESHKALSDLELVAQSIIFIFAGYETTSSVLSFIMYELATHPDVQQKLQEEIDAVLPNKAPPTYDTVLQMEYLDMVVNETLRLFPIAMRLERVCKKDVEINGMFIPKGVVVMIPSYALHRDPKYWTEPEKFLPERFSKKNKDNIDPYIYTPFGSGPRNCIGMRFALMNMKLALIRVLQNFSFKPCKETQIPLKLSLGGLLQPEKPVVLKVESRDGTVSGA

IC50 (SRPK1) [nM] | IC50 (CYP1A2) [nM] | IC50 (CYP2C9) [nM] | IC50 (CYP2C19) [nM] | IC50 (CYP2D6) [µM] | IC50 (CYP3A4) [nM] | SMILES
4 | 21700 | 7670 | 7500 | 15.4 | 10000 | CC1(O)CCCN(c2ccc(Cl)cc2NC(=O)c2ccc(-c3ccncc3)o2)CC1 (racemic) [Example 38, N-(5-chloro-2-(4-hydroxy-4-methylazepan-1-yl)phenyl)-5-(pyridin-4-yl)furan-2-carboxamide]
1.6 | > 30000 | 8450 | 10400 | 26.9 | 10900 | CC1(O)CCCN(c2ccc(C(F)(F)F)cc2NC(=O)c2ccc(C3CCOCC3)o2)CC1 (racemic) [Example 40, N-(2-(4-hydroxy-4-methylazepan-1-yl)-5-(trifluoromethyl)phenyl)-5-(tetrahydro-2H-pyran-4-yl)furan-2-carboxamide]
3 | 2660 | 810 | 370 | 0.38 | 2610 | CC1(O)CCCN(c2ccc(Cl)cc2NC(=O)c2ccc(C3CCOCC3)o2)CC1 (racemic) [Example 41, N-(5-chloro-2-(4-hydroxy-4-methylazepan-1-yl)phenyl)-5-(tetrahydro-2H-pyran-4-yl)furan-2-carboxamide]
13 | > 30000 | 610 | 530 | 16.6 | 10300 | CC1(O)CCCN(c2ccc(C3CC3)cc2NC(=O)c2ccc(C3CCOCC3)o2)CC1 (racemic) [Example 42, N-(5-cyclopropyl-2-(4-hydroxy-4-methylazepan-1-yl)phenyl)-5-(tetrahydro-2H-pyran-4-yl)furan-2-carboxamide]
1.5 | 24300 | 11200 | 8570 | 25.3 | 26300 | O=C(Nc1cc(C(F)(F)F)ccc1N1CCCC(O)CC1)c1ccc(-c2ccncc2)o1 (racemic) [Example 44, N-(2-(4-hydroxyazepan-1-yl)-5-(trifluoromethyl)-phenyl)-5-(pyridin-4-yl)furan-2-carboxamide]
30 | 550 | 410 | 100 | 0.66 | 1430 | O=C(Nc1cc(Cl)ccc1N1CCCC(O)CC1)c1ccc(-c2ccncc2)o1 (racemic) [Example 45, N-(5-chloro-2-(4-hydroxyazepan-1-yl)phenyl)-5-(pyridin-4-yl)furan-2-carboxamide]
8.7 | 6240 | 1060 | 1180 | 1.52 | 2130 | O=C(Nc1cc(C2CC2)ccc1N1CCCC(O)CC1)c1ccc(-c2ccncc2)o1 (racemic) [Example 46, N-(5-cyclopropyl-2-(4-hydroxyazepan-1-yl)phenyl)-5-(pyridin-4-yl)furan-2-carboxamide]
10.4 | > 30000 | > 30000 | > 30000 | > 30 | > 30000 | O=C(Nc1cc(C(F)(F)F)ccc1N1CCCC(O)CC1)c1ccc(C2CCOCC2)o1 (racemic) [Example 47, N-(2-(4-hydroxyazepan-1-yl)-5-(trifluoromethyl)-phenyl)-5-(tetrahydro-2H-pyran-4-yl)furan-2-carboxamide]
15 | 16800 | 10300 | 6000 | 15.7 | 21100 | O=C(Nc1cc(Cl)ccc1N1CCCC(O)CC1)c1ccc(C2CCOCC2)o1 (racemic) [Example 48, N-(5-chloro-2-(4-hydroxyazepan-1-yl)phenyl)-5-(tetrahydro-2H-pyran-4-yl)furan-2-carboxamide]
5.2 | 7340 | 7250 | 6730 | 21.2 | 17200 | O=C(Nc1cc(C2CC2)ccc1N1CCCC(O)CC1)c1ccc(C2CCOCC2)o1 (racemic) [Example 49, N-(5-cyclopropyl-2-(4-hydroxyazepan-1-yl)phenyl)-5-(tetrahydro-2H-pyran-4-yl)furan-2-carboxamide]
35 | > 30000 | 6350 | 6140 | 7.14 | 20900 | CC1(O)CCN(c2ccc(C(F)(F)F)cc2NC(=O)c2ccc(C3CCOCC3)o2)C1 (racemic) [Example 54, N-(2-(3-hydroxy-3-methylpyrrolidin-1-yl)-5-(trifluoromethyl)-phenyl)-5-(tetrahydro-2H-pyran-4-yl)furan-2-carboxamide]
26 | 13000 | > 30000 | 22900 | > 30 | > 30000 | CC1(O)CCN(c2ccc(C(F)(F)F)cc2NC(=O)c2ccc(-c3ccncc3)o2)C1 (racemic) [Example 55, N-(2-(3-hydroxy-3-methylpyrrolidin-1-yl)-5-(trifluoromethyl)-phenyl)-5-(pyridin-4-yl)furan-2-carboxamide]
101 | 960 | 140 | 130 | 0.04 | 2420 | O=C(Nc1cc(C(F)(F)F)ccc1N1CCC(O)C1)c1ccc(-c2ccncc2)o1 (racemic) [Example 56, N-(2-(3-hydroxypyrrolidin-1-yl)-5-(trifluoromethyl)-phenyl)-5-(pyridin-4-yl)furan-2-carboxamide]
75 | 9160 | 5550 | 14500 | 11.5 | > 30000 | O=C(Nc1cc(C(F)(F)F)ccc1N1CCC(O)C1)c1ccc(C2CCOCC2)o1 (racemic) [Example 57, N-(2-(3-hydroxypyrrolidin-1-yl)-5-(trifluoromethyl)-phenyl)-5-(tetrahydro-2H-pyran-4-yl)furan-2-carboxamide]
204 | > 30000 | > 30000 | > 30000 | > 30 | 23200 | Cc1ccc(N2CCC(C)(O)C2)c(NC(=O)c2ccc(C3CCOCC3)o2)c1 (racemic) [Example 58, N-(2-(3-hydroxy-3-methylpyrrolidin-1-yl)-5-methylphenyl)-5-(tetrahydro-2H-pyran-4-yl)-furan-2-carboxamide]
54 | 10500 | 15000 | 10500 | 23.9 | > 30000 | CC1(O)CCN(c2ccc(C3CC3)cc2NC(=O)c2ccc(C3CCOCC3)o2)C1 (racemic) [Example 59, N-(5-cyclopropyl-2-(3-hydroxy-3-methyl-pyrrolidin-1-yl)phenyl)-5-(tetrahydro-2H-pyran-4-yl)furan-2-carboxamide]
71 | > 30000 | > 30000 | 22600 | > 30 | > 30000 | CC1(O)CCN(c2ccc(Cl)cc2NC(=O)c2ccc(C3CCOCC3)o2)C1 (racemic) [Example 60, N-(5-chloro-2-(3-hydroxy-3-methylpyrrolidin-1-yl)phenyl)-5-(tetrahydro-2H-pyran-4-yl)furan-2-carboxamide]
9 | 15300 | 17800 | 16000 | > 30 | 20900 | CC1(O)CCN(c2ccc(C(F)(F)F)cc2NC(=O)c2ccccn2)CC1 [Example 1, N-(2-(4-hydroxy-4-methylpiperidin-1-yl)-5-(trifluoromethyl)phenyl)picolinamide]
